Where “and” joins values, the source holds several entries; their conditions need not be identical. Identical values can stand only once. Like-named read-outs stand apart in the source and are kept apart here.

Consider three compounds from paper PMC3945162 (Psychopharmacology, 2013).

The subject of one series is Male Swiss–Webster mice. The experiment in a line: Locomotor activity. It counts as in vivo, mouse.
Series [1] has as its system rats trained to discriminate DMT (5 mg/kg) from saline. Type of series: in vivo, rat. Conditions: DMT-trained rats.
The test system of series [2] is rats trained to discriminate DOM (0.5 mg/kg) from saline. It counts as in vivo, rat.
In series [3] the test system is rats trained to discriminate LSD (0.1 mg/kg) from saline. Type of series: in vivo, rat. Conditions: LSD-trained rats; for Maximum %DAR (drug-appropriate responding): i.p., at dose of maximum DAR.
Series [4] deals with rats trained to discriminate MDMA (1.5 mg/kg) from saline. It counts as in vivo, rat. Conditions: MDMA-trained rats.
Series [5] has as its system rats trained to discriminate METH (1 mg/kg) from saline. Type of series: in vivo, rat. Conditions: METH-trained rats.
A further series deals with Male Sprague-Dawley rats. Kind of series: Adverse effects observed during drug discrimination test sessions. It counts as in vivo, rat.
In series [6] the target is T1, human 5-HT1A receptor (Homo sapiens, UniProt P08908).
T1 sequence (P08908 1-422): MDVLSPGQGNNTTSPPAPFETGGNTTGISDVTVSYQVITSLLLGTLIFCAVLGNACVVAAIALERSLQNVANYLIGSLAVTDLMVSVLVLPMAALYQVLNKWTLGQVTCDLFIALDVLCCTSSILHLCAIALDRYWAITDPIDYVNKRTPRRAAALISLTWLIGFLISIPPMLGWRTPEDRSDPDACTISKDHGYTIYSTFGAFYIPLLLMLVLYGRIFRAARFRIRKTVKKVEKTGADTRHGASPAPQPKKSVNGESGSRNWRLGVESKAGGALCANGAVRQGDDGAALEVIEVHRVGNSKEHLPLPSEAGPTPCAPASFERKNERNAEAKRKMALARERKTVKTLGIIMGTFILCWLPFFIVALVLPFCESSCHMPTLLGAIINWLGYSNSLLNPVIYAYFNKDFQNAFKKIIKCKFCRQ
The experiment in a line: [3H]8-OH-DPAT binding, HEK-5-HT1A.

Series [7] concerns the target T1, human 5-HT1A receptor. Kind of series: [35S]GTPγS binding functional assay, HEK-5-HT1A. It counts as biochemical. Conditions: for Emax: read-out: 5-HT1A Function [35S]GTPγS Binding % maximal effect. A general note: GTPγS resists hydrolysis and so accumulates on activated G proteins.
Series [8] has as its target T2, human 5-HT2A receptor (Homo sapiens, UniProt P28223). Kind of series: [125I]DOI binding, HEK-5-HT2A cells.
Series [9] addresses T2, human 5-HT2A receptor. Kind of series: [3H]AA release from HEK-5-HT2A cells. Type of series: cell-based.
The target in series [10] is T2, human 5-HT2A receptor. Kind of series: IP-1 formation, HEK-5-HT2A cells. Conditions: for Emax: read-out: 5-HT2A Function IP-1 formation % maximal effect. Type of series: cell-based.
Series [11] has as its target T3, human 5-HT2C receptor (Homo sapiens, UniProt P28335).
T3 sequence (P28335 33-458): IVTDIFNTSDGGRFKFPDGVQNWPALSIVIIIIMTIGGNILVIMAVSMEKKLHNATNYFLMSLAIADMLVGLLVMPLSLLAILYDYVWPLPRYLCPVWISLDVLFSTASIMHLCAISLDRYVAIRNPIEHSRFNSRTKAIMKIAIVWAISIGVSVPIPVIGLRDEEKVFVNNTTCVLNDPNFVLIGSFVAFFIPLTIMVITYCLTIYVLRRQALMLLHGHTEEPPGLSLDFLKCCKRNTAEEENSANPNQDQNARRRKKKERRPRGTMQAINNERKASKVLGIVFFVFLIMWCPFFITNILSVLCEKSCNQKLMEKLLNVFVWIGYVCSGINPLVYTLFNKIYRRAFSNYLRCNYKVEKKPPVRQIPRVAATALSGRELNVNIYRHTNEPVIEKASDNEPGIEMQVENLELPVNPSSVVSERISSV
Kind of series: biochemical. Type of series: binding.

For series [12], the target named is T3, human 5-HT2C receptor. Kind of series: cell-based. Conditions: for Emax: read-out: 5-HT2C Function IP-formation % maximal effect.
Series [13] has as its target T4, hDAT (Homo sapiens, UniProt Q01959). Kind of series: [125I]RTI-55 binding, HEK-hDAT cells.
In series [14] the target is T4, hDAT. Kind of series: [3H]Dopamine uptake, HEK-hDAT cells. Type of series: cell-based.
The target of series [15] is T4, hDAT. Kind of series: [3H]Dopamine release, HEK-hDAT cells. It counts as cell-based.
Series [16] addresses T5, hSERT (Homo sapiens, UniProt P31645). Kind of series: [125I]RTI-55 binding, HEK-hSERT cells.
Series [17] concerns the target T5, hSERT. Kind of series: [3H]Serotonin uptake, HEK-hSERT cells. It counts as cell-based.
Series [18] addresses T5, hSERT. The experiment in a line: [3H]Serotonin release, HEK-hSERT cells. It counts as cell-based.
The target in series [19] is T6, hNET (Homo sapiens, UniProt P23975). The experiment in a line: biochemical. It counts as binding.
T6 sequence (P23975 whole entry): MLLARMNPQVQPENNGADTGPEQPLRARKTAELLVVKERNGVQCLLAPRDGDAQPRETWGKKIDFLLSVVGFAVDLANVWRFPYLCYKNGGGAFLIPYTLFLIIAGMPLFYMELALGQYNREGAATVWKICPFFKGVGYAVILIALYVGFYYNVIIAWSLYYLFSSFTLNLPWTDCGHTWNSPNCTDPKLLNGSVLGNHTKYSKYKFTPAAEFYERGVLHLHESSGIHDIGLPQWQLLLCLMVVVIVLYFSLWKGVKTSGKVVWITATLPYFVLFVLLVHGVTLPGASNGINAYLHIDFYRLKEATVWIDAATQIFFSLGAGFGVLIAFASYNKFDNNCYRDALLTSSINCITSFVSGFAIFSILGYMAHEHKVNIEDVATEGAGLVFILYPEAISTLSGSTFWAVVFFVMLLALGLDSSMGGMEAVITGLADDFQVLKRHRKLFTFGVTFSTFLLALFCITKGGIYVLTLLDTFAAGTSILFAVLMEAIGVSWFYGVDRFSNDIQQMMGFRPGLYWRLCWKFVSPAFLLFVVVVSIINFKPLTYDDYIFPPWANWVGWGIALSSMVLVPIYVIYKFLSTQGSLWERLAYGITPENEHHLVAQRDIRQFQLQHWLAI
Series [20] addresses T6, hNET. The experiment in a line: cell-based.
In series [21] the target is T6, hNET. The experiment in a line: cell-based. This is another data set of the same source.
The subject of a further series is 5-HT2A. Conditions: ref McLean et al. 2006; cited from earlier work.
In series [22] the target is T4, hDAT. Conditions: read-out: [3H]Dopamine release EC50; HEK-hDAT cells; ref Gatch et al., 2011; cited from earlier work.
Series [23] deals with T5, hSERT. Conditions: read-out: [3H]Serotonin release EC50; HEK-hSERT cells; ref Gatch et al., 2011; cited from earlier work.
Series [24] deals with T6, hNET. Conditions: read-out: [3H]NE release EC50; HEK-hNET cells; ref Gatch et al., 2011; cited from earlier work.
Setting [25] is: i.p., 15 min pretreatment, at dose of maximum DAR.
The mark [26] stands for this setting: 10 mg/kg, METH-trained rats, 15 min.

T2 sequence (P28223 whole entry): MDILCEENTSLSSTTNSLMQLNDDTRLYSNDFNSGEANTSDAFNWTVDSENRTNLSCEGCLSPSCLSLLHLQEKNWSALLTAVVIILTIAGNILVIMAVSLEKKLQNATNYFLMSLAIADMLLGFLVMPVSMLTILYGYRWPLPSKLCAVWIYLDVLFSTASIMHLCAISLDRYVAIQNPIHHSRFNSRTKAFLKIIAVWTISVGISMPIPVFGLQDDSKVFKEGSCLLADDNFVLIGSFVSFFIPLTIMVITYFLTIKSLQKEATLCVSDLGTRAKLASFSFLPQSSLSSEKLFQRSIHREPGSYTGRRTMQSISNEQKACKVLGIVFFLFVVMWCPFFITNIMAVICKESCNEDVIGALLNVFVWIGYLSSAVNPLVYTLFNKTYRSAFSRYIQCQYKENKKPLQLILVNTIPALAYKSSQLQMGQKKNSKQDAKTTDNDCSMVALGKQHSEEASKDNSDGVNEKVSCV
T4 sequence (Q01959 whole entry): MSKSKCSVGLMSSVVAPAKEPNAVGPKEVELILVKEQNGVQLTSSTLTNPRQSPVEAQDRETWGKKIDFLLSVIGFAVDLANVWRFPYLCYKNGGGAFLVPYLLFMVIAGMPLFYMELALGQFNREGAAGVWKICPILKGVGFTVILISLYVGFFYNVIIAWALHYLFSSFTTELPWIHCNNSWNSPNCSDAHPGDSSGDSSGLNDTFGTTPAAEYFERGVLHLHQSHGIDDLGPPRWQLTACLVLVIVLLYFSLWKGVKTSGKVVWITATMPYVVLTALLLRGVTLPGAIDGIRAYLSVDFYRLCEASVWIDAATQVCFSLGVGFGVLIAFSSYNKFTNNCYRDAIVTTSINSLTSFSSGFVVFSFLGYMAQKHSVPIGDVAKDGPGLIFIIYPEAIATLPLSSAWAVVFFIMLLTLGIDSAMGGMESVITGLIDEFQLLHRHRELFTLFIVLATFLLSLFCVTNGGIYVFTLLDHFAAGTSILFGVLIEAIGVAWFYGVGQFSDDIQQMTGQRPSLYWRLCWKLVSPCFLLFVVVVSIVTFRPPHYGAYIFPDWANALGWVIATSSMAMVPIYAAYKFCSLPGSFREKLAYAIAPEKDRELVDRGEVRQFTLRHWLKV
T5 sequence (P31645 whole entry): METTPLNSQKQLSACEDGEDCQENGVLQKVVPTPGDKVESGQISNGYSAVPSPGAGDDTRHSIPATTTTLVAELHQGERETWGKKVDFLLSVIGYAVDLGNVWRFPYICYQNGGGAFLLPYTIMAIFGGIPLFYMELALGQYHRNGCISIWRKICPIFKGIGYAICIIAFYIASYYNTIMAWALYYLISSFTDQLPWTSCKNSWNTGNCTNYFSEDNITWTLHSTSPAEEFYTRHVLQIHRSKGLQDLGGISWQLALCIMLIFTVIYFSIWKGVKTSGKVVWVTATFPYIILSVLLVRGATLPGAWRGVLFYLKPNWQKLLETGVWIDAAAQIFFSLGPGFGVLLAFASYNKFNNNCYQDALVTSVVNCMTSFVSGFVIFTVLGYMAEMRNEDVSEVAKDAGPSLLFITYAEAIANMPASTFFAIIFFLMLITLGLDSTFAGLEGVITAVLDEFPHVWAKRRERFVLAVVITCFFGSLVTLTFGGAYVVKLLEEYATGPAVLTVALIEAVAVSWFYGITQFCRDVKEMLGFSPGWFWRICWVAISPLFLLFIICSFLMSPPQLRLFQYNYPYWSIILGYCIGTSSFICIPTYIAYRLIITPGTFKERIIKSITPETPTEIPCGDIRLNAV

As to `COc1cc(CCN)c(OC)cc1C` [2C-D, 2,5-dimethoxy-4-methylphenethylamine], the “Lethality (mice)” value in the series on Male Swiss–Webster mice (100 mg/kg i.p., within 30 min) is on record as 8/8. The “Doses producing stimulant effects on locomotor activity” value in the series on Male Swiss–Webster mice (mice, i.p.) came to 3 mg/kg. Besides, in the series with Male Swiss–Webster mice (mice, i.p.), the “Duration of depressant effects” value was in the range of 20 to 40 min. Moreover, the “Duration of stimulant effects” value in the series with Male Swiss–Webster mice (mice, i.p.) amounted to 180 min. For the same compound, the “Onset of depressant effects (within, after injection)” value with Male Swiss–Webster mice (mice, i.p.) was not above 10 min. In addition, in the series with Male Swiss–Webster mice (mice, i.p.), the “Onset of stimulant effects (within, after injection)” value is reported as not above 50 min. The “Rate of responding at dose of maximum DAR” value worked out at 0.154±0.070 resp/s in series [1] (15 min pretreatment); 0.332±0.067 resp/s in [1] (70 min pretreatment); 0.383±0.038 resp/s in [2] (15 min pretreatment); 0.338±0.187 resp/s in series [2] (70 min pretreatment); 0.385±0.060 resp/s in series [3] (15 min pretreatment); 0.379±0.054 resp/s in series [3] (70 min pretreatment). Besides, the “Rate of responding at dose of maximum DAR” value in [4] (15 min pretreatment) came out at 0.402±0.073 resp/s; in series [4] (70 min pretreatment), 0.547±0.127 resp/s; in [5] (15 min pretreatment), 0.190±0.086 resp/s; in series [5] (70 min pretreatment) it was 0.072±0.032 resp/s. Also, the “Maximum %DAR (drug-appropriate responding)” value is 83±17 % in series [1] (i.p., 70 min pretreatment, at dose of maximum DAR); 100±0 % in [2] (setting [25]); 83±17 % in series [3] (15 min pretreatment); 83±17 % in [3] (70 min pretreatment); 61% and 61±20 ^2% in series [4] (setting [25]); 15±15 ^2% in series [5] (setting [25]). Also, the “Rats that failed to complete the first fixed ratio” value in the series with Male Sprague-Dawley rats (setting [26]) is listed as 4/6. The “Reddening of the extremities (rats affected/tested)” value in the series with Male Sprague-Dawley rats (setting [26]) is on record as 2/6. The “Rats with salivation and failure to complete the first fixed ratio” value in the series with Male Sprague-Dawley rats (50 mg/kg, 70 min) is on record as “Two of three”. Also, the Ki at human 5-HT1A receptor [6] was 1.63 ± 0.15 µM; at human 5-HT2A receptor [8], 0.0239 ± 0.0039 µM; at human 5-HT2C receptor [11] it was 0.0127 ± 0.0013 µM; on hDAT [13], more than 10 µM; at hSERT [16] it was more than 10 µM; at hNET [19], more than 8500 nM. The EC50 on human 5-HT1A receptor [7] was more than 10 µM; at human 5-HT2A receptor [9], 153 ± 28 nM; at human 5-HT2A receptor [10] it was 0.145 ± 0.039 µM; on human 5-HT2C receptor [12], 0.0711 ± 0.008 µM. Moreover, the Emax was less than 25% on human 5-HT1A receptor [7], 81.1 ± 9.7% on human 5-HT2A receptor [9] (read-out: 5-HT2A Function [3H]AA release % maximal effect), 93 ± 6.7% at human 5-HT2A receptor [10] and 100 ± 14% on human 5-HT2C receptor [12]. Besides, the IC50 is more than 10000 nM against hDAT [14], more than 8.4 µM against hSERT [17] and more than 9200 nM at hNET [20]. In addition, the “[3H]Dopamine release % METH maximal effect” value at hDAT [15] (HEK-hDAT cells) is “ND Minimal”. Also, the “[3H]Serotonin release % PCA maximal effect” value on hSERT [18] is on record as “ND Minimal”. The “[3H]NE release % METH maximal effect” value on hNET [21] is given as “ND Minimal”.

As to `COc1cc(Br)c(OC)c2c1[C@H](CN)C2` [((R)-4-bromo-3,6-dimethoxybenzocyclobuten-1-yl)methyl-amine)], the “Fold more potent at stimulating inositol phosphate turnover than AA release” value in the series with 5-HT2A is recorded as 65 fold.

Turning to `CN[C@@H](C)Cc1ccccc1` [METH, methamphetamine, reference compound], the Ki was determined as 9.7 ± 1.8 µM on human 5-HT1A receptor [6]; 41.9 ± 9.6 µM on human 5-HT2A receptor [8]; 10.1 ± 3.2 µM on human 5-HT2C receptor [11] (read-out: 5-HT2C [125I]DOI binding Ki ± sem); 4.75 ± 0.53 µM at hDAT [13]; 188 ± 14 µM at hSERT [16]; 1480 ± 130 nM at hNET [19]. Also, the EC50 at human 5-HT1A receptor [7] was 23.6 ± 8.1 µM; on human 5-HT2A receptor [10], more than 1000 µM; at human 5-HT2C receptor [12] it was 74 ± 16 µM; at hDAT [22] it was 970 ± 250 nM; at hSERT [23], 27.8 ± 7.7 µM; at hNET [24], 67 ± 18 nM. The Emax at human 5-HT1A receptor [7] is 68 ± 11%; at human 5-HT2A receptor [10], less than 3%; on human 5-HT2C receptor [12] it was 52 ± 10%; at hDAT [15] (read-out: [3H]Dopamine release % METH maximal effect), 100%; at hNET [21] (read-out: [3H]NE release % METH maximal effect), 100%. Also, the IC50 on hDAT [14] stood at 56 ± 15 nM; on hNET [20] it was 23 ± 5.5 nM.

For orientation: Ki means the dissociation constant of the complex between target and ligand, obtained from inhibition or displacement. As a reminder, the EC50 is the concentration at which the effect is half-maximal. For orientation: IC50 means the concentration at which inhibition is half-maximal. A low value points to greater potency in that assay.
